Results: ChEMBL document CHEMBL6127085, “Design, synthesis and evaluation of novel LpxC inhibitors containing a hydrazone moiety as Gram-negative antibacterial agents” (Eur J Med Chem, 2024)
In brackets after ≈: the same amount, converted by molar mass. Each block holds one compound with its values, some of them ahead of it.

How the values were obtained:
Pseudomonas aeruginosa [1] = assay: Antibacterial activity against Pseudomonas aeruginosa ATCC27853 assessed as reduction in bacterial growth measured after 18 to 24 hrs by CLSI protocol based method; type: functional; settings: time 18-24 hrs
[2] = Metabolic stability in mouse liver microsomes assessed as intrinsic clearance at 1 uM preincubated for 5 mins followed by NADPH addition and measured after 5 to 60 mins by LC-MS analysis; type: ADME, Microsome; settings: time 10-65 min
Escherichia coli [3] = assay: Antibacterial activity against Escherichia coli ATCC25922 assessed as reduction in bacterial growth measured after 18 to 24 hrs by CLSI protocol based method; type: functional; settings: time 18-24 hrs
[4] = Intrinsic clearance in human; type: ADME; settings: read-out: CLH
[5] = Metabolic stability in human liver microsomes assessed as intrinsic clearance at 1 uM preincubated for 5 mins followed by NADPH addition and measured after 5 to 60 mins by LC-MS analysis; type: ADME, Microsome; settings: time 10-65 min, read-out: CLH
[6] = Metabolic stability in rat liver microsomes assessed as half life at 1 uM preincubated for 5 mins followed by NADPH addition and measured after 5 to 60 mins by LC-MS analysis; type: ADME, Microsome; settings: time 10-65 min
Klebsiella pneumoniae [7] = assay: Antibacterial activity against Klebsiella pneumoniae ATCC700603 assessed as reduction in bacterial growth measured after 18 to 24 hrs by CLSI protocol based method; type: functional; settings: time 18-24 hrs
[8] = Metabolic stability in rat liver microsomes assessed as intrinsic clearance at 1 uM preincubated for 5 mins followed by NADPH addition and measured after 5 to 60 mins by LC-MS analysis; type: ADME, Microsome; settings: time 10-65 min
[9] = Intrinsic clearance in rat; type: ADME; settings: read-out: CLH
Pseudomonas aeruginosa [10] = assay: Antibacterial activity against Pseudomonas aeruginosa clinical isolate PAE22-1 assessed as reduction in bacterial growth measured after 18 to 24 hrs by CLSI protocol based method; type: functional; settings: time 18-24 hrs
[11] = Metabolic stability in mouse liver microsomes assessed as half life at 1 uM preincubated for 5 mins followed by NADPH addition and measured after 5 to 60 mins by LC-MS analysis; type: ADME, Microsome; settings: time 10-65 min
[12] = Intrinsic clearance in mouse; type: ADME, organism-based; settings: read-out: CLH
Klebsiella pneumoniae [13] = assay: Antibacterial activity against Klebsiella pneumoniae clinical isolate KPN+22-1 assessed as reduction in bacterial growth measured after 18 to 24 hrs by CLSI protocol based method; type: functional; settings: time 18-24 hrs
Escherichia coli [14] = assay: Potency index, ratio of CHIR-090 MIC to test compound MIC for antibacterial activity against Escherichia coli ATCC25922 assessed as reduction in bacterial growth measured after 18 to 24 hrs by CLSI protocol based method; type: functional; settings: time 18-24 hrs
[15] = Metabolic stability in human liver microsomes assessed as half life at 1 uM preincubated for 5 mins followed by NADPH addition and measured after 5 to 60 mins by LC-MS analysis; type: ADME, Microsome; settings: time 10-65 min
[16] = Plasma protein binding in mouse assessed as unbound fraction at 1 uM incubated for 6 hrs by LC-MS/MS analysis; type: ADME, cell-free
[17] = Plasma protein binding in rat assessed as unbound fraction at 1 uM incubated for 6 hrs by LC-MS/MS analysis; type: ADME, cell-free
[18] = Plasma protein binding in mouse at 1 uM incubated for 6 hrs by LC-MS/MS analysis; type: ADME, cell-free; settings: read-out: PPB (converted)
Cytochrome P450 2D6 = Cytochrome P450 2D6 (Homo sapiens, UniProt P10635); assay: Inhibition of CYP2D6 in human liver microsomes using quinidine […] preincubated for 5 mins followed by substrate addition ande measured after 120 mins in presence of NADPH by LC-MS/MS analysis; type: ADME, Microsome
Chain of Cytochrome P450 2D6 (P10635 whole entry): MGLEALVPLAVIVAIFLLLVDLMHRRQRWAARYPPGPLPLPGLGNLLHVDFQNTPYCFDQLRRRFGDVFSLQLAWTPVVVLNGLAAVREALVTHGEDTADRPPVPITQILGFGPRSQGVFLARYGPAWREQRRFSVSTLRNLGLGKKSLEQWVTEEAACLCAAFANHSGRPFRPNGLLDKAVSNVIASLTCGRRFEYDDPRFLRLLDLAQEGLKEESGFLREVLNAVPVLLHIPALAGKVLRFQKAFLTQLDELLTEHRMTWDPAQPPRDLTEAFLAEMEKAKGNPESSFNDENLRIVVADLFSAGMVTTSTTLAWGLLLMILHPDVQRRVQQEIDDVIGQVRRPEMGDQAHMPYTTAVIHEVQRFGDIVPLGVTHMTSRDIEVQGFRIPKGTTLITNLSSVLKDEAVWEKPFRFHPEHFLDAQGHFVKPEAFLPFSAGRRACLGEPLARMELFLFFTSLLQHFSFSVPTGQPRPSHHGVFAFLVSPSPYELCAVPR

[19] = Plasma protein binding in rat at 1 uM incubated for 6 hrs by LC-MS/MS analysis; type: ADME, cell-free; settings: read-out: PPB (converted)
[20] = Plasma protein binding in human at 1 uM incubated for 6 hrs by LC-MS/MS analysis; type: ADME, cell-free; settings: read-out: PPB
Cytochrome P450 1A2 = target: T1, Cytochrome P450 1A2 (Homo sapiens, UniProt P05177); assay: Inhibition of CYP1A2 in human liver microsomes using alpha-naphthoflavone […] preincubated for 5 mins followed by substrate addition ande measured after 120 mins in presence of NADPH by LC-MS/MS analysis; type: ADME, Microsome
T1 sequence (P05177 whole entry): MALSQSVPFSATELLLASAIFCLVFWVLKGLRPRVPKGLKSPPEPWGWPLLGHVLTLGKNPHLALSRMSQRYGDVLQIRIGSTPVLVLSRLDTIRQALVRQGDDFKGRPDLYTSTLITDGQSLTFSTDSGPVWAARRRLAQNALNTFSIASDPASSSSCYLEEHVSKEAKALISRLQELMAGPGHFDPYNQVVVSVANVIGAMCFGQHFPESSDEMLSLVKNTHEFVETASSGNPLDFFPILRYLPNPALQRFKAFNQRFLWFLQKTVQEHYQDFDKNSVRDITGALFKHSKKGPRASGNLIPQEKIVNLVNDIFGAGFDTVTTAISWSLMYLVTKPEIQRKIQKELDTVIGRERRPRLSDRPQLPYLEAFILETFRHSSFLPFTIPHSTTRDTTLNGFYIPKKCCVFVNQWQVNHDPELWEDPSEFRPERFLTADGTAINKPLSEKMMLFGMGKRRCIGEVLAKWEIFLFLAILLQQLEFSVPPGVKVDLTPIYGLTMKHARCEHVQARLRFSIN

[21] = Volume of distribution at steady state in male Sprague-Dawley rat at 1 mg/kg, iv measured upto 24 hrs by LC-MS analysis; type: ADME, organism-based; settings: in vivo, read-out: Vdss
[22] = AUC (0 to t) in male Sprague-Dawley rat at 1 mg/kg, iv measured upto 24 hrs by LC-MS analysis; type: ADME, organism-based; settings: in vivo
[23] = Clearance in male Sprague-Dawley rat at 1 mg/kg, iv measured upto 24 hrs by LC-MS analysis; type: ADME, organism-based; settings: in vivo
[24] = Solubility of the compound at pH 9.0 by LC-MS/MS analysis; type: physicochemical; settings: buffer
HepG2 = assay: Cytotoxicity against human HepG2 cells assessed as inhibition of cell growth measured after 48 hrs by MTT assay; type: functional, cell-based; settings: HepG2, 48 h
[25] = Solubility of the compound at pH 6.8 by LC-MS/MS analysis; type: physicochemical; settings: buffer
[26] = Half life in male Sprague-Dawley rat at 10 mg/kg, IG measured upto 24 hrs by LC-MS analysis; type: ADME, organism-based; settings: in vivo, po
[27] = AUC (0 to t) in male Sprague-Dawley rat at 10 mg/kg, IG measured upto 24 hrs by LC-MS analysis; type: ADME, organism-based; settings: in vivo, po
[28] = Stability in rat plasma at 1 uM incubated for 6 hrs by LC-MS/MS analysis; type: ADME, cell-free; settings: read-out: Stability
[29] = MRT (0 to t) in male Sprague-Dawley rat at 1 mg/kg, iv measured upto 24 hrs by LC-MS analysis; type: ADME, organism-based; settings: in vivo
[30] = Plasma protein binding in rat assessed as drug recovery at 1 uM incubated for 6 hrs by LC-MS/MS analysis; type: ADME, cell-free; settings: read-out: Drug recovery
Cytochrome P450 3A4 = Cytochrome P450 3A4 (Homo sapiens, UniProt P08684); assay: Inhibition of CYP3A4 in human liver microsomes using ketoconazole […] preincubated for 5 mins followed by substrate addition ande measured after 120 mins in presence of NADPH by LC-MS/MS analysis; type: ADME, Microsome
Chain of Cytochrome P450 3A4 (P08684 whole entry): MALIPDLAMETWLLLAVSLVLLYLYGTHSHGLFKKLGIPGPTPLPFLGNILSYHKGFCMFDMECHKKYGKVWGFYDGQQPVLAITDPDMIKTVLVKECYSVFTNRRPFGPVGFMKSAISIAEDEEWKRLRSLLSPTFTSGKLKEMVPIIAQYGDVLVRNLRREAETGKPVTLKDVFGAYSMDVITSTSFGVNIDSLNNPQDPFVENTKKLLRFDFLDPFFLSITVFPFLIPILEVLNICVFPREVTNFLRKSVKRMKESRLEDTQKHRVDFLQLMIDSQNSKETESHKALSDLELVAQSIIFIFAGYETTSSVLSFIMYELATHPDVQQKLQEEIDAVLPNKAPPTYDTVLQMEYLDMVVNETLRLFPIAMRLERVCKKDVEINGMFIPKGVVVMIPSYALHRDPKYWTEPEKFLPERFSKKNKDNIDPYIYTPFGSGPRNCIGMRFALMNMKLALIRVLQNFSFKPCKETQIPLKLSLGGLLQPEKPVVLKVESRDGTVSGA

[31] = Half life in male Sprague-Dawley rat at 1 mg/kg, iv measured upto 24 hrs by LC-MS analysis; type: ADME, organism-based; settings: in vivo
[32] = MRT (0 to t) in male Sprague-Dawley rat at 10 mg/kg, IG measured upto 24 hrs by LC-MS analysis; type: ADME, organism-based; settings: in vivo, po
[33] = Oral bioavailability in male Sprague-Dawley rat at 10 mg/kg, IG measured upto 24 hrs by LC-MS analysis; type: ADME, organism-based; settings: in vivo
Cytochrome P450 2C19 = Cytochrome P450 2C19 (Homo sapiens, UniProt P33261); assay: Inhibition of CYP2C19 in human liver microsomes using nootkatone […] preincubated for 5 mins followed by substrate addition ande measured after 120 mins in presence of NADPH by LC-MS/MS analysis; type: ADME, Microsome
Chain of Cytochrome P450 2C19 (P33261 whole entry): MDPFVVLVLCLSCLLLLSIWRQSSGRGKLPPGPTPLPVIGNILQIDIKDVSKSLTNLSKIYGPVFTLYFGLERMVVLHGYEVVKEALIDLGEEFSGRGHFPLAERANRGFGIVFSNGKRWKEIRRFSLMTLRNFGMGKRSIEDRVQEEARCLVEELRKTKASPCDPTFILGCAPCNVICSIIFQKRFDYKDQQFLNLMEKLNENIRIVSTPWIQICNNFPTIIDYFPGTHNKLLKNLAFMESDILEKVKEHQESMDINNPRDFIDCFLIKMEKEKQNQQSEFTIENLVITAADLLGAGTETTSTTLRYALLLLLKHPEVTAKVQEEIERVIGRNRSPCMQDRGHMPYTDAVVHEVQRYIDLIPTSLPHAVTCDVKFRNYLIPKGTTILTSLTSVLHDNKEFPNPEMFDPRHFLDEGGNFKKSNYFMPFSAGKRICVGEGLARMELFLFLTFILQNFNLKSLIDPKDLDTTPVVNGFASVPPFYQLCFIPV

[34] = Cmax in male Sprague-Dawley rat at 10 mg/kg, IG measured upto 24 hrs by LC-MS analysis; type: ADME, organism-based; settings: in vivo, po
[35] = Tmax in male Sprague-Dawley rat at 10 mg/kg, IG measured upto 24 hrs by LC-MS analysis; type: ADME, organism-based; settings: in vivo, po
[36] = Plasma protein binding in human assessed as drug recovery at 1 uM incubated for 6 hrs by LC-MS/MS analysis; type: ADME, cell-free; settings: read-out: Drug recovery
[37] = Stability in human plasma at 1 uM incubated for 6 hrs by LC-MS/MS analysis; type: ADME, cell-free; settings: read-out: Stability
[38] = Solubility of the compound at pH 4.0 by LC-MS/MS analysis; type: physicochemical; settings: buffer
[39] = Plasma protein binding in human assessed as unbound fraction at 1 uM incubated for 6 hrs by LC-MS/MS analysis; type: ADME, cell-free
[40] = Plasma protein binding in mouse assessed as drug recovery at 1 uM incubated for 6 hrs by LC-MS/MS analysis; type: ADME, cell-free; settings: read-out: Drug recovery
[41] = Stability in mouse plasma at 1 uM incubated for 6 hrs by LC-MS/MS analysis; type: ADME, cell-free; settings: read-out: Stability
Cytochrome P450 2C9 = Cytochrome P450 2C9 (Homo sapiens, UniProt P11712); assay: Inhibition of CYP2C9 in human liver microsomes using sulfaphenazolum […] preincubated for 5 mins followed by substrate addition ande measured after 120 mins in presence of NADPH by LC-MS/MS analysis; type: ADME, Microsome
Chain of Cytochrome P450 2C9 (P11712 whole entry): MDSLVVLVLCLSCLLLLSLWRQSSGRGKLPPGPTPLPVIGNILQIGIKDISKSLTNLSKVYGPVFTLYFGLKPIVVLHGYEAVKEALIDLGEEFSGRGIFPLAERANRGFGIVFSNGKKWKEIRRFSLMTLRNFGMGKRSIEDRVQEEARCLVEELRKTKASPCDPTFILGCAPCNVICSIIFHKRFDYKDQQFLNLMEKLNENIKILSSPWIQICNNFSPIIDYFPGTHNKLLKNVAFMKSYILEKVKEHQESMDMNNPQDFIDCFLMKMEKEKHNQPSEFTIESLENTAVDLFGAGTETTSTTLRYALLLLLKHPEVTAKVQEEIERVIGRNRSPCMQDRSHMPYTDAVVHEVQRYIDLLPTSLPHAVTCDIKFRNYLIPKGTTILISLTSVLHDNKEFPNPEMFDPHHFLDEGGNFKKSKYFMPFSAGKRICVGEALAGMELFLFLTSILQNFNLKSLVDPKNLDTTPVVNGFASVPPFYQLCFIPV

[42] = liver microsomes, read-out: CLH

MIC (Pseudomonas aeruginosa [1]): > 64 µg/mL
microsomal CLint at 1 µM [2, 42]: 1.79 µL/min/mg
MIC (Escherichia coli [3]): 0.25 µg/mL (≈ 0.555 µM)
CLint scaled [4]: 6.76 mL/min/kg
microsomal CLint at 1 µM [5]: 7.16 µL/min/mg
half-life at 1 µM ([6]; liver microsomes): 7.9 h
MIC (Klebsiella pneumoniae [7]): > 64 µg/mL
microsomal CLint at 1 µM [8, 42]: 4.53 µL/min/mg
CLint scaled [9]: 8.15 mL/min/kg
MIC (Pseudomonas aeruginosa [10]): 1 µg/mL (≈ 2.22 µM)
half-life at 1 µM ([11]; liver microsomes): 6.1 h
CLint scaled [12]: 7.04 mL/min/kg
MIC (Klebsiella pneumoniae [13]): 1 µg/mL (≈ 2.22 µM)
half-life at 1 µM ([15]; liver microsomes): 4.98 h
SMILES: C[C@@H](O)[C@H](NC(=O)c1ccc(C#Cc2ccc(/C=N/N3CCOCC3)cc2)cc1)C(=O)NO
Ratio (Escherichia coli [14]): 2

fraction unbound at 6 h, 1 µM [16]: 0.00232
fraction unbound at 6 h, 1 µM [17]: 0.0016
fraction unbound at 6 h, 1 µM [18]: 0.002
MIC (Pseudomonas aeruginosa [1]): > 64 µg/mL
IC50 (Cytochrome P450 2D6): > 30 µM
CLH ([2]; microsomes, 1 µM): 17.6 µL/min/mg
fraction unbound at 6 h, 1 µM [19]: 0.002
MIC (Escherichia coli [3]): 0.06 µg/mL (≈ 0.138 µM)
fraction unbound at 6 h, 1 µM [20]: 0.001
IC50 (Cytochrome P450 1A2): > 30 µM
Vd [21]: 1.8 L/kg
AUC(0-t) at 24 h [22]: 791 ng·h/mL
clearance [23]: 20.6 mL/min/kg
solubility [24]: 101 µM (≈ 43.9 µg/mL)
solubility [25]: 9.41 µM (≈ 4.09 µg/mL)
half-life [26]: 2.5 h
AUC(0-t) at 24 h [27]: 1050 ng·h/mL
CLint scaled [4]: 165 mL/min/kg
remaining at 6 h, 1 µM [28]: 109%
t1/2 ([6]; microsomes, 1 µM): 4.14 min
MRT last at 24 h [29]: 1.31 h
MIC (Klebsiella pneumoniae [7]): 8 µg/mL (≈ 18.4 µM)
recovery at 6 h, 1 µM [30]: 102%
IC50 (Cytochrome P450 3A4): > 30 µM
CLH ([8]; microsomes, 1 µM): 9.76 µL/min/mg
half-life [31]: 1.09 h
CLint scaled [9]: 8.59 mL/min/kg
MRT last at 24 h [32]: 3.41 h
bioavailability [33]: 13.3%
IC50 (Cytochrome P450 2C19): > 30 µM
MIC (Pseudomonas aeruginosa [10]): 2 µg/mL (≈ 4.6 µM)
Cmax [34]: 218 ng/mL
Tmax [35]: 4 h
recovery at 6 h, 1 µM [36]: 103%
remaining at 6 h, 1 µM [37]: 113%
solubility [38]: 4.8 µM (≈ 2.09 µg/mL)
t1/2 ([11]; microsomes, 1 µM): 3.91 min
CLint scaled [12]: 33.8 mL/min/kg
MIC (Klebsiella pneumoniae [13]): 0.25 µg/mL (≈ 0.575 µM)
fraction unbound at 6 h, 1 µM [39]: 0.0013
recovery at 6 h, 1 µM [40]: 110%
t1/2 ([15]; microsomes, 1 µM): 5.62 h
remaining at 6 h, 1 µM [41]: 111%
IC50 (Cytochrome P450 2C9): > 30 µM
SMILES: C[C@@H](O)[C@H](NC(=O)c1ccc(C#Cc2ccc(/C=N/N3CCCC3)cc2)cc1)C(=O)NO
IC50 (HepG2): > 30 µM

MIC (Pseudomonas aeruginosa [1]): > 64 µg/mL
MIC (Escherichia coli [3]): 0.25 µg/mL (≈ 0.536 µM)
MIC (Klebsiella pneumoniae [7]): > 64 µg/mL
MIC (Pseudomonas aeruginosa [10]): 8 µg/mL (≈ 17.1 µM)
MIC (Klebsiella pneumoniae [13]): 1 µg/mL (≈ 2.14 µM)
SMILES: C[C@@H](O)[C@H](NC(=O)c1ccc(C#Cc2ccc(/C=N/N3CCSCC3)cc2)cc1)C(=O)NO
Ratio (Escherichia coli [14]): 2
